Test results reported in paper PMC8578705 (Cell Reports, 2021).
Several values for one entry are separate records, joined by “and”; a condition that tells them apart may be missing. Equal values may be shown once.

Columns and labels:
IP3R1 (HEK-IP3R1 cells) = molecular target: T1, IP3R1 (HEK-IP3R1 cells) (Rattus norvegicus, UniProt P29994); assay: Ca2+ release from permeabilized HEK-IP3R1 cells; assay type: cell-based; conditions: at the concentrations used (heparin 10 mg/mL, dequalinium 50 μM, 2-APB 125 μM), permeabilized HEK-IP3R1 cells
T1 construct: expressed in transfected cells
Description: Fluorescence, which is approximately linearly related to ER free [Ca^2+] […] Ca^2+-free CLM comprised: 20 mM NaCl, 140 mM KCl, 1 mM EGTA, 20 mM PIPES, 2 mM MgCl2, pH 7.0. […] MgATP (1.5 mM) was added to initiate Ca^2+ uptake, and when the ER had loaded to steady state with Ca^2+ (∼150 s), ligands were added. Responses to the ligands show ER Ca^2+ contents as either time courses or, in summary results, as the Ca^2+ content recorded 20 s after addition of the stimulus. The distribution of samples across 96-well plates was varied between experiments to avoid any systematic ‘position-related’ artifacts. HEK-G-CEPIA1er cells were permeabilized and assayed as described for Mag-fluo 4-loaded cells.
For equilibrium binding and concentration-effect relationships, results from each experiment were fitted to Hill equations (PRISM) from which pIC50 (-log of half-maximal inhibitory concentration) or pEC50 (-log of half-maximally effective concentration) values were determined.

[1] = molecular target: T2, NT (residues 1-604 of IP3R1) (Rattus norvegicus, UniProt P29994); assay: Equilibrium-competition [3H]IP3 binding to the NT fragment in TEM; conditions: [3H]IP3 0.75 nM, read-out: NT, KD
T2 construct: Residues 1-604 of rat IP3R1 (NT) in pTrcHisA plasmid; His6 (N, cleaved yes); made in house; host or cells: E. coli (bacterial lysate used in the assay)
T2 sequence (P29994 1-604): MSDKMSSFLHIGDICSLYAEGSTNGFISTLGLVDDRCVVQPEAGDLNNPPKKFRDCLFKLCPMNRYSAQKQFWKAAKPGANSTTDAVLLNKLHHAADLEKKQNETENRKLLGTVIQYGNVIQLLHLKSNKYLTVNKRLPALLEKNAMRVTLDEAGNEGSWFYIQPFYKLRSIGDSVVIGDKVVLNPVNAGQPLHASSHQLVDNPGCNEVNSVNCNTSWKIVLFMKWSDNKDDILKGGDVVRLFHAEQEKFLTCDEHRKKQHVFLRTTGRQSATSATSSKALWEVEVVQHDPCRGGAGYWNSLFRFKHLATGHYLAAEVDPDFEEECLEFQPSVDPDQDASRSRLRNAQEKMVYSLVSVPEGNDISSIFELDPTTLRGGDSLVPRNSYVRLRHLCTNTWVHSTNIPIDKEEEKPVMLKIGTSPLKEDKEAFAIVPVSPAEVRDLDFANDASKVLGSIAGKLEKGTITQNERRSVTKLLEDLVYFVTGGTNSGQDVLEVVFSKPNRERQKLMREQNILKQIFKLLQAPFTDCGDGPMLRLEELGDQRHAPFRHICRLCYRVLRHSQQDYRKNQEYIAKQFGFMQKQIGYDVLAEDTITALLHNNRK
Description: (§1) IP3R1, which accounts for ∼99% of IP3Rs in cerebellum ([Wojcikiewicz, 1995]), was purified from cerebella of adult Wistar rats using heparin-affinity chromatography ([Rossi et al., 2009]). The purified protein (10 μg/mL) was stored at −80°C in 500 mM NaCl, 50 mM Tris, 10% glycerol, 1 mM 2-mercaptoethanol, 1 mM benzamidine, 1 mM EGTA, 50 mM Tris, 1% CHAPS, pH 8.0. N-terminal fragments of IP3R1 (IBC, residues 224-604; NT, residues 1-604) were expressed as N-terminally tagged His6-fusion proteins in E. coli and cleaved from the tag with thrombin ([Rossi et al., 2009]). […] Bound and free ligand were separated by centrifugation (4°C, 5 min, 14,000 × g).
(§2) For equilibrium binding and concentration-effect relationships, results from each experiment were fitted to Hill equations (PRISM) from which pIC50 (-log of half-maximal inhibitory concentration) or pEC50 (-log of half-maximally effective concentration) values were determined. KDligand was calculated from: KDligand = […] . In functional assays, dose ratios (DR) were used to calculate antagonist affinities ([Arunlakshana and Schild, 1959]): KDantagonist = [antagonist]/(DR-1).

IP3R1 = molecular target: T3, IP3R1 (Rattus norvegicus, UniProt P29994); assay: Nuclear patch-clamp recording from excised nuclear patches of DT40-IP3R1 cells; assay type: biochemical, mammalian
T3 construct: expressed in transfected cells; host or cells: Gallus gallus DT40 cells without native IP3Rs, stably transfected
Description: The methods used for patch-clamp recording from patches excised from the outer nuclear envelope of DT40-IP3R1 cells, with K^+ as charge-carrier and using QuB ([Qin, 2004]) for analysis of currents, were as described previously ([Taufiq-Ur-Rahman et al., 2009]; [Rossi et al., 2009]). It typically took 30-45 s to establish a recording, and Po was then stable throughout recordings that typically lasted up to 8-10 mins.

IP3R1 (DT40-IP3R1 cells) = molecular target: T4, IP3R1 (DT40-IP3R1 cells) (Rattus norvegicus, UniProt P29994); assay: Ca2+ release from permeabilized DT40-IP3R1 cells (Mag-fluo 4); assay type: cell-based
T4 construct: expressed in transfected cells; host or cells: Gallus gallus DT40 cells without native IP3Rs, stably transfected
Description: (§3) Incubation of cells with the acetoxymethylester (AM) of Mag-fluo 4 traps low-affinity forms of the indicator ( KdCa = 1.15 mM measured in situ) within the ER. Fluorescence, which is approximately linearly related to ER free [Ca^2+] (since [Ca^2+]ER < KdCa ), can then be used, without further calibration, to reliably report free [Ca^2+] within the ER lumen ([Rossi and Taylor, 2020]). The ER of DT40 or HEK293 cells was loaded with indicator by incubating cells with Mag-fluo 4 AM (20 μM, 60 min, 22°C) in HEPES-buffered saline (HBS: 135 mM NaCl, 5.9 mM KCl, 11.6 mM HEPES, 1.5 mM CaCl2, 11.5 mM glucose, 1.2 mM MgCl2, pH 7.3) as described ([Rossi et al., 2009]). After washing and permeabilization with saponin (10 μg/mL, 37°C, 2-3 min) in Ca^2+-free cytosol-like medium (Ca^2+-free CLM), cells were centrifuged (650 × g, 2 min) and resuspended in Mg^2+-free CLM supplemented with CaCl2 to give a final free [Ca^2+] of 220 nM after addition of 1.5 mM MgATP. Ca^2+-free CLM comprised: 20 mM NaCl, 140 mM KCl, 1 mM EGTA, 20 mM PIPES, 2 mM MgCl2, pH 7.0. Cells (4 × 10^5 cells/well) were attached to poly-L-lysine-coated 96-well black-walled plates (Greiner Bio-One, Stonehouse, UK), and fluorescence (excitation and emission at 485 nm and 520 nm, respectively) was recorded at intervals of 1.44 s using a FlexStation III plate-reader (Molecular Devices, Sunnyvale, CA, USA). MgATP (1.5 mM) was added to initiate Ca^2+ uptake, and when the ER had loaded to steady state with Ca^2+ (∼150 s), ligands were added. Responses to the ligands show ER Ca^2+ contents as either time courses or, in summary results, as the Ca^2+ content recorded 20 s after addition of the stimulus. The distribution of samples across 96-well plates was varied between experiments to avoid any systematic ‘position-related’ artifacts. HEK-G-CEPIA1er cells were permeabilized and assayed as described for Mag-fluo 4-loaded cells.
as §2

[2] = molecular target: T5, IBC (residues 224-604 of IP3R1) (Rattus norvegicus, UniProt P29994); assay: Equilibrium-competition [3H]IP3 binding to the IBC fragment in TEM; conditions: read-out: IBC, KD
T5 construct: Residues 224-604 of rat IP3R1 (IBC) in pTrcHisA plasmid; His6 (N, cleaved yes); made in house; host or cells: E. coli (bacterial lysate used in the assay)
T5 sequence (P29994 224-604): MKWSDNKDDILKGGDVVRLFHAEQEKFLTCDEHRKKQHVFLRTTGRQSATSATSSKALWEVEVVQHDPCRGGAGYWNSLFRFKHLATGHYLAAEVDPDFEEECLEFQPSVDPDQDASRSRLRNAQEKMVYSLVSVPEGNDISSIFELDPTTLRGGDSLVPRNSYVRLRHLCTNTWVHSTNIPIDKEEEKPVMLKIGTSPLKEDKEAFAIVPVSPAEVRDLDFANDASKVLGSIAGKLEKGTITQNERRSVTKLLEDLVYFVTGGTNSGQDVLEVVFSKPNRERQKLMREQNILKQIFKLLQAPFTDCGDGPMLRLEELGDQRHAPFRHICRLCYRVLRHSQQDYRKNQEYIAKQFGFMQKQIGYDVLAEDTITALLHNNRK
Description: as §1, §2

[3] = molecular target: T6, IP3R1 (cerebellar membranes) (Rattus norvegicus, UniProt P29994); assay: Equilibrium-competition [3H]IP3 binding to cerebellar membranes in CLM (conditions mimicking functional assays)
T6 construct: membranes from cerebella of adult Wistar rats; from tissue; host or cells: cerebellar membranes of adult Wistar rats
T6 sequence (P29994 whole entry): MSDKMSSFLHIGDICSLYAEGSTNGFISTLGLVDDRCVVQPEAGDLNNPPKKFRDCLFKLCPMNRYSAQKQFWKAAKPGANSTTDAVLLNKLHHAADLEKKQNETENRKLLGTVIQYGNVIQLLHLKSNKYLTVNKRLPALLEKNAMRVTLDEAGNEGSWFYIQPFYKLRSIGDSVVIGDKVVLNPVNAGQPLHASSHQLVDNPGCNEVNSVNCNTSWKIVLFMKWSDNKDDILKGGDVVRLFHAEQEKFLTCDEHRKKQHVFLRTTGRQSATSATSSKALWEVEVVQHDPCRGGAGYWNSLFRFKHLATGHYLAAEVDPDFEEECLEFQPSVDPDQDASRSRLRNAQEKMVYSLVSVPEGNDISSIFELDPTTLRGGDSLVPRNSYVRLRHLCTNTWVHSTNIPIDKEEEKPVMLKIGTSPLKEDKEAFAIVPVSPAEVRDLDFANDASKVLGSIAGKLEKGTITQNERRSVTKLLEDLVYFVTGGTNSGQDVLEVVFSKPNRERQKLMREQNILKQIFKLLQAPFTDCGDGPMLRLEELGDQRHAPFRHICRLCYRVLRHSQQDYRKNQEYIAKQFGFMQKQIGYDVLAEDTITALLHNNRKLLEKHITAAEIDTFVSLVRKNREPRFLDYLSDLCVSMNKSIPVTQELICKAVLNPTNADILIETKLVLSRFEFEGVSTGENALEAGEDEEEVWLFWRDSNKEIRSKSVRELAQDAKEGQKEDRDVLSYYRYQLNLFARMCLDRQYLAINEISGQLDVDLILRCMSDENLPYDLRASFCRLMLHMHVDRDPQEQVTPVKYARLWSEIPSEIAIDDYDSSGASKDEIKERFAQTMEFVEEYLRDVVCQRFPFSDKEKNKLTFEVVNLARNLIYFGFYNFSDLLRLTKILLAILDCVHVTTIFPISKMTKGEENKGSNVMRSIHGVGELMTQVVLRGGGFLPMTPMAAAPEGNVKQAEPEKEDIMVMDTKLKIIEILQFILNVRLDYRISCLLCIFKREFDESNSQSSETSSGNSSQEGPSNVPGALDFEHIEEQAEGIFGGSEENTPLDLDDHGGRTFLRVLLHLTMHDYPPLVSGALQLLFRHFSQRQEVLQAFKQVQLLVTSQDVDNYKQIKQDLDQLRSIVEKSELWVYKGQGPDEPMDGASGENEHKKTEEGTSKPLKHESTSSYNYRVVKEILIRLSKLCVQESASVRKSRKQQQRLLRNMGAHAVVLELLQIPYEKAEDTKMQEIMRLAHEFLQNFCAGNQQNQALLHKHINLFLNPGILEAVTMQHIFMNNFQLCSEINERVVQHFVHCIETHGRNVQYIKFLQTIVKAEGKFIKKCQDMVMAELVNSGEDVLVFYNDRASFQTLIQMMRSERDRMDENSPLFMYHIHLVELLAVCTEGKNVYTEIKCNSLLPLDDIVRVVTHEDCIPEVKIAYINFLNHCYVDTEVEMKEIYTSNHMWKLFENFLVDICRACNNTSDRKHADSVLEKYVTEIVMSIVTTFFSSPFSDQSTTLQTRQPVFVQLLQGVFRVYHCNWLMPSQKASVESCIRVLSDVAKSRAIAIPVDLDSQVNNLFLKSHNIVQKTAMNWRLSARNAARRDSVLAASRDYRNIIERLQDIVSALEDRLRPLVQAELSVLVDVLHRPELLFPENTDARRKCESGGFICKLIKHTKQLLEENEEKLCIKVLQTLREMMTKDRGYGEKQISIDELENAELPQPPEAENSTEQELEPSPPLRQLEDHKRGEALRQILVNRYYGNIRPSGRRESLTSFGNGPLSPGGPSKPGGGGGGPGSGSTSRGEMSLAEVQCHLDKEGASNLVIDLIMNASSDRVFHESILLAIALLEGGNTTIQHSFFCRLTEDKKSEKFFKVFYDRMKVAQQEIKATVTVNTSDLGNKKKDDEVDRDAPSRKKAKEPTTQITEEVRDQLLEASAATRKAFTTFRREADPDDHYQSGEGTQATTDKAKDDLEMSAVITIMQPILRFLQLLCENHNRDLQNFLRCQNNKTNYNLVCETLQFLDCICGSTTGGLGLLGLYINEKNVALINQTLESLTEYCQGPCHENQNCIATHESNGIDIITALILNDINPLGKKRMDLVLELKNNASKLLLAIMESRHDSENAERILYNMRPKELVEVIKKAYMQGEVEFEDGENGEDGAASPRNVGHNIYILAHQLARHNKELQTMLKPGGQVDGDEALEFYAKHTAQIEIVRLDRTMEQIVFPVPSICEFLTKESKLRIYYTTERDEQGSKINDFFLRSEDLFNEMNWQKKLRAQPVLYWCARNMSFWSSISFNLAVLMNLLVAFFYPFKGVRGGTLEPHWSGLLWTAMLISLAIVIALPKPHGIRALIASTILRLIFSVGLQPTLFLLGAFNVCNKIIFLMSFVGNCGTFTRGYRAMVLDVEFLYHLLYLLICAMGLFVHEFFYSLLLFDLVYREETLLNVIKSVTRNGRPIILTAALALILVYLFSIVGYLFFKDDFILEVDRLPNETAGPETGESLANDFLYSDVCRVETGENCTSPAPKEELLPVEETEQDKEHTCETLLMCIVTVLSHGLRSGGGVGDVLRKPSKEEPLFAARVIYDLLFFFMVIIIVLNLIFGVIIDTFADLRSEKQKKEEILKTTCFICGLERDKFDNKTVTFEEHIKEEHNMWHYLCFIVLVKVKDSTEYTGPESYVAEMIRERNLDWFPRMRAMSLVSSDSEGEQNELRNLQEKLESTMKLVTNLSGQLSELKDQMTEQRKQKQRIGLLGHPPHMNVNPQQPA
Description: Bound and free ligand were separated by centrifugation (22°C, 5 min, 14,000 × g).
as §2

[4] = system: IP3Rs (wild-type HEK cells); assay: Ca2+ release from permeabilized wild-type HEK cells; assay type: cell-based, Homo sapiens; conditions: 20 s after addition
Description: as §3, §2

NCCOB(c1ccccc1)c1ccccc1 [Compound 2-APB, 2-aminoethoxydiphenyl borate]
block of IP3-evoked Ca2+ release (IP3R1 (HEK-IP3R1 cells)): partially

O=C(NCCCN(CCCCN(CCCNC(=O)OCc1ccccc1)C(=O)OCc1ccccc1)C(=O)OCc1ccccc1)NCCO[C@@H]1[C@H](O)[C@@H](OP(=O)(O)O)[C@H](OP(=O)(O)O)[C@@H](O)[C@@H]1OP(=O)(O)O [Compound 2, 2-O-(1,5,10-tris(benzyloxycarbonyl)-15-oxo-1,5,10,14,16-pentaazaoctadecan-18-yl)-1D-myo-inositol 1,4,5-trisphosphate]
Kd [1]: 2.32 nM | decrease in τo relative to IP3 (fold) (IP3R1): ~2 fold | maximal NPo relative to IP3 (fold less) (IP3R1): 40 fold | τo, mean channel open time (IP3R1; 10 µM ligand): 4.4 ± 0.20 ms | NPo (channel activity) (IP3R1; 10 µM ligand in pipette, +40 mV, K+ charge carrier, mean ± SEM): 0.012 ± 0.003 | γK, single-channel K+ conductance (IP3R1; 10 µM ligand, from current-voltage relationships): 217 ± 4 pS | ECI50/KD ratio relative to IP3 (fold greater) (IP3R1 (DT40-IP3R1 cells)): 41 fold | Ca2+ release evoked by 2 (%) (IP3R1 (DT40-IP3R1 cells); 2 at 1 µM, 30 s, permeabilized DT40-IP3R1 cells): 31% ± 7% and 31 ± 7% | Ca2+ stores released by a maximal concentration (IP3R1 (DT40-IP3R1 cells); 2 at 30 μM, determined at 150 s, permeabilized DT40-IP3R1 cells): 52% ± 3% | Kd (IP3R1 (DT40-IP3R1 cells); DT40-IP3R1 cells, read-out: KD derived from functional assays): ~450 nM | pKD-pECI50 (IP3R1 (DT40-IP3R1 cells); KD for IP3R1 in TEM, ECI50 in DT40-IP3R1 cells, mean ± SEM): 2.15 ± 0.15 | Kb (IP3R1 (DT40-IP3R1 cells); functional analysis, IP3-evoked Ca2+ release ± 2 (1 µM), DT40-IP3R1 cells, read-out: KD determined from dose-ratio analysis, KD = [2]/(DR-1)): 426 nM | Ca2+ release, Release (maximal) (IP3R1 (DT40-IP3R1 cells); permeabilized DT40-IP3R1 cells, determined after 20 s, mean ± SEM): 51.9 ± 0.7% | EC50 (IP3R1 (DT40-IP3R1 cells); permeabilized DT40-IP3R1 cells, determined after 20 s, read-out: Ca2+ release, EC50): 479 nM | Kd [2]: 0.44 nM | Hill coefficient (h) of binding ([3]; cerebellar membranes, CLM at 20°C): 2.0 ± 0.7 | Kd ([3]; cerebellar membranes, CLM, conditions that mimic functional assays): 549 nM | KD relative to KD for IP3 (fold lower) ([3]; conditions that mimic functional assays): 1.5 fold | Ca2+ release (%) ([4]; maximal): 51 ± 7% | pEC50 ([4]; mean ± SEM): 6.09 ± 0.22

Cc1cc(N)c2ccccc2[n+]1CCCCCCCCCC[n+]1c(C)cc(N)c2ccccc21 [dequalinium, Dequalinium chloride hydrate]
effect on specific [3H]IP3 binding ([3]; dequalinium 50 μM, [3H]IP3 7.5 nM, cerebellar membranes in CLM at 20°C): No significant difference | block of IP3-evoked Ca2+ release (IP3R1 (HEK-IP3R1 cells)): completely
